Results reported in ChEMBL document CHEMBL1909540, “Synthesis and antimycobacterial evaluation of 3a,4-dihydro-3H-indeno [1,2-c] pyrazole-2-carboxamide analogues” (Eur J Med Chem, 2011).
≈ marks a conversion by molar mass, not a printed value.

System: not listed separately
Assay: Safety index, ratio of IC50 for african green monkey Vero cells to MIC for multidrug-resistant Mycobacterium tuberculosis
Format: toxicity, cell-based

SMILES | selectivity ratio
COc1cc2c(cc1OC)C1=NN(C(=O)Nc3ccc(Cl)cc3)C(c3ccc(F)cc3)C1C2 (stereo not given) | 40.3

System: Mycobacterium tuberculosis
Assay: Antitubercular activity against multidrug-resistant Mycobacterium tuberculosis by two fold serial dilution method
Format: functional

SMILES | MIC
COc1cc2c(cc1OC)C1=NN(C(=O)Nc3ccc([N+](=O)[O-])cc3)C(c3ccncc3)C1C2 (stereo not given) | > 13.6 µM
COc1cc2c(cc1OC)C1=NN(C(=O)Nc3ccc(Cl)cc3)C(c3ccncc3)C1C2 (stereo not given) | 10 µM (≈ 4.49 µg/mL)
COc1cc2c(cc1OC)C1=NN(C(=O)Nc3ccc(Cl)cc3)C(c3ccccc3Cl)C1C2 (stereo not given) | > 13.9 µM
COc1cc2c(cc1OC)C1=NN(C(=O)Nc3ccc(Cl)cc3)C(c3ccc(F)cc3)C1C2 (stereo not given) | 3.32 µM (≈ 1.55 µg/mL)
COc1ccc(C2C3Cc4cc(OC)c(OC)cc4C3=NN2C(=O)Nc2ccc(Cl)cc2)cc1OC (stereo not given) | > 9.8 µM
COc1cc2c(cc1OC)C1=NN(C(=O)Nc3ccc(Cl)cc3)C(c3ccccc3)C1C2 (stereo not given) | 10.5 µM (≈ 4.69 µg/mL)
COc1ccc(C2C3Cc4cc(OC)c(OC)cc4C3=NN2C(=O)Nc2ccc(Cl)cc2)cc1 (stereo not given) | > 10.5 µM
COc1cc2c(cc1OC)C1=NN(C(=O)Nc3ccc([N+](=O)[O-])cc3)C(c3ccccc3Cl)C1C2 (stereo not given) | > 12.7 µM
COc1cc2c(cc1OC)C1=NN(C(=O)Nc3ccc([N+](=O)[O-])cc3)C(c3ccc(F)cc3)C1C2 (stereo not given) | 6.32 µM (≈ 3.01 µg/mL)
COc1ccc(C2C3Cc4cc(OC)c(OC)cc4C3=NN2C(=O)Nc2ccc([N+](=O)[O-])cc2)cc1OC (stereo not given) | > 12.1 µM
COc1cc2c(cc1OC)C1=NN(C(=O)Nc3ccc([N+](=O)[O-])cc3)C(c3ccccc3)C1C2 (stereo not given) | 13.6 µM (≈ 6.24 µg/mL)
COc1ccc(C2C3Cc4cc(OC)c(OC)cc4C3=NN2C(=O)Nc2ccc([N+](=O)[O-])cc2)cc1 (stereo not given) | > 12.8 µM
COc1cc2c(cc1OC)C1=NN(C(N)=O)C(c3ccncc3)C1C2 (stereo not given) | > 11.8 µM
COc1cc2c(cc1OC)C1=NN(C(N)=O)C(c3ccccc3Cl)C1C2 (stereo not given) | > 10.8 µM
COc1cc2c(cc1OC)C1=NN(C(N)=O)C(c3ccc(F)cc3)C1C2 (stereo not given) | 6.62 µM (≈ 2.35 µg/mL)
COc1ccc(C2C3Cc4cc(OC)c(OC)cc4C3=NN2C(N)=O)cc1OC (stereo not given) | > 10.1 µM
COc1cc2c(cc1OC)C1=NN(C(N)=O)C(c3ccccc3)C1C2 (stereo not given) | > 11.8 µM
COc1ccc(C2C3Cc4cc(OC)c(OC)cc4C3=NN2C(N)=O)cc1 (stereo not given) | > 10.9 µM
NNC(=O)c1ccncc1 [ISONIAZID] | 45.6 µM (≈ 6.25 µg/mL)
